Reference: the NIST ThermoML archive (doi:10.1021/je900285w)

Experiments:
[1] = Crystal; DTA
[2] = Molar enthalpy of transition or fusion; conditions: Crystal; DSC
[3] = molar heat capacity at constant pressure; conditions: 101.33 kPa, Crystal

OC[C@@H](O)[C@@H](O)[C@H](O)[C@H](O)CO [D-mannitol]
Conditions | Molar enthalpy of transition or fusion [kcal/mol] | Normal melting temperature [°C]
[1] | – | 164.10
[2] | 13.1 | –

[3]
Conditions | molar heat capacity at constant pressure [J/K/mol]
80 K | 70.46
80.42 K | 71.86
84.12 K | 75.82
85 K | 76.73
87.06 K | 79
90 K | 82.37
90.04 K | 82.17
93.09 K | 85.24
95 K | 87.51
96.04 K | 88
99.05 K | 90.89
100 K | 92.23
102.11 K | 93.72
105 K | 96.64
105.11 K | 96.44
108.05 K | 98.92
110 K | 100.8
111.06 K | 101.4
114.14 K | 104
115 K | 104.8
117.16 K | 106.5
120 K | 108.7
120.11 K | 109
123.13 K | 111.5
125 K | 112.5
126.22 K | 113.8
129.26 K | 116.1
130 K | 116.2
132.27 K | 118.9
135 K | 120
135.24 K | 120.9
138.18 K | 123
140 K | 123.8
141.2 K | 125.4
144.28 K | 127.8
145 K | 127.7
147.31 K | 129.9
150 K | 131.6
150.31 K | 132.2
153.28 K | 134.4
155 K | 135.6
156.23 K | 136.7
159.25 K | 138.8
160 K | 139.7
162.37 K | 141.7
165 K | 143.9
165.49 K | 143.2
168.58 K | 146.4
170 K | 148.2
171.61 K | 149.2
174.59 K | 150.8
175 K | 152.5
177.6 K | 152.9
180 K | 156.9
180.59 K | 156.6
183.61 K | 159.2
185 K | 161.4
186.66 K | 162.1
189.7 K | 165
190 K | 166
192.75 K | 168.2
195 K | 170.6
195.81 K | 170.5
198.93 K | 173.9
200 K | 175.2
202.13 K | 176.6
205 K | 179.9
205.3 K | 180.9
208.4 K | 184.3
210 K | 184.6
211.46 K | 187.3
214.49 K | 189.7
215 K | 189.3
217.58 K | 192.1
220 K | 193.9
220.74 K | 195.4
223.88 K | 198.8
225 K | 198.6
226.99 K | 202.7
230 K | 203.2
230.03 K | 204.2
233.09 K | 207.6
235 K | 207.8
236.15 K | 210.5
239.22 K | 213.4
242.24 K | 215.7
245.33 K | 217.7
248.42 K | 220
251.42 K | 221.4
254.48 K | 223.2
257.61 K | 226.2
260.73 K | 228
263.83 K | 230.7
266.98 K | 233.6
270.15 K | 236.1
273.22 K | 239.5
276.28 K | 242.1
279.35 K | 245.4
282.41 K | 248.6
285.44 K | 251.6
288.45 K | 253.1
291.43 K | 256
294.39 K | 259
297.49 K | 260.6
300.61 K | 262.6
303.63 K | 264.9
306.66 K | 266.7
309.69 K | 268.4
312.78 K | 270.6
315.92 K | 272.9
319.06 K | 275.3
322.19 K | 277.9
325.3 K | 280.3
328.4 K | 282.6
331.49 K | 284.8
334.56 K | 286.1
337.63 K | 289
340.68 K | 291.4
343.78 K | 293.3
346.92 K | 295.5
350.05 K | 297.6
353.16 K | 299.6
356.26 K | 301.3
359.31 K | 303.7
362.51 K | 305.8
365.68 K | 308.4
368.86 K | 310.2
372.04 K | 311.9
375.21 K | 314
378.35 K | 316.7
381.44 K | 319
384.52 K | 320.9
387.64 K | 322.7
